Laboratory results reported in paper PMC9654571, “Water-Soluble Truncated Fatty Acid–Porphyrin Conjugates Provide Photo-Sensitizer Activity for Photodynamic Therapy in Malignant Mesothelioma” (Cancers, 2022).
≈ marks a conversion by molar mass, not a printed value. Like-named read-outs stand apart in the source and are kept apart here. Marks after values point to notes of the source that are not given here.

Legend:
[1] = system: NCI-H28 cells; test: WST-8 cell viability assay after PDT, NCI-H28; format: cell-based, human; conditions: Homo sapiens; NCI-H28, 5 μg/mL, light, 48 h; read-out: cell viability relative to untreated control
Description: (§1) Porphyrin PS stock solutions 4, 5, and 6 (Scheme 1) were prepared by dissolving a 5 mg aliquot in 500 μL of 1 M NaOH. This was added to 9.5 mL of complete media to prepare a 500 μg/mL stock solution. Stock solutions were filter sterilized using a Millipore PES membrane filter (Merck, Watford, UK). Working solutions were prepared immediately before PDT experiments and consisted of six treatments: an untreated control, vehicle control, and four porphyrin concentrations (5, 10, 15, and 20 μg/mL).
(§2) Cells were detached using a trypsin/EDTA solution (Lonza). Trypan blue (0.4% v/v) exclusion was used to count viable cells before seeded into 96-well plates (Nunc) at a density of 5 × 10^3 cells per well in 200 μL of complete RPMI. Cell culture plates were seeded approximately 24 h before PDT. Media was aspirated and replaced with equal volumes of the respective PS treatment. For the purpose of background subtraction, PS treatments were also added to wells without cells. Following 3 h of incubation (37 °C, 5% CO2:95% air), plates were irradiated for 15 min on a 15 W light box (UVP, Cambridge, UK). […]
(§3) Cell viability was assessed by the colorimetric WST-8 assay. […] The plates were incubated for 3 h (37 °C, 5% CO2:95% air) and then analyzed at 450 nm using a Clariostar Plate Reader (BMG Labtech, Ortenberg, Germany). Corrected absorbance was calculated in each case by subtraction of the media only controls. […]

[2] = WST-8 cell viability assay after PDT, NCI-H28; format: cell-based, human; conditions: human, NCI-H28 cells, NCI-H28, 5 μg/mL, dark, read-out: cell viability relative to untreated control
Description: as §1, §2, §3

[3] = WST-8 cell viability assay after PDT, MSTO-211H; format: cell-based, human; conditions: human, MSTO-211H cells, dark; for viability at 48 h, 5 μg/mL: read-out: cell viability relative to untreated control
Description: as §1
(§4) Cells were detached using a trypsin/EDTA solution (Lonza). Trypan blue (0.4% v/v) exclusion was used to count viable cells before seeded into 96-well plates (Nunc) at a density of 5 × 10^3 cells per well in 200 μL of complete RPMI. Cell culture plates were seeded approximately 24 h before PDT. Media was aspirated and replaced with equal volumes of the respective PS treatment. For the purpose of background subtraction, PS treatments were also added to wells without cells. Following 3 h of incubation (37 °C, 5% CO2:95% air), plates were irradiated for 15 min on a 15 W light box (UVP, Cambridge, UK). Experiments performed parallel to dark-treated control plates.
(§5) Cell viability was assessed by the colorimetric WST-8 assay. […] The plates were incubated for 3 h (37 °C, 5% CO2:95% air) and then analyzed at 450 nm using a Clariostar Plate Reader (BMG Labtech, Ortenberg, Germany). Corrected absorbance was calculated in each case by subtraction of the media only controls. Finally, percentage cell viability was expressed relative to untreated control values.

[4] = system: MSTO-211H cells; test: WST-8 cell viability assay after PDT, MSTO-211H; format: cell-based, human; conditions: Homo sapiens, 5 μg/mL, light, 48 h, read-out: cell viability relative to untreated control
Description: as §1, §4, §5

[5] = UV/vis absorbance spectroscopy in DMSO, water and 1 M HCl (stacking, aqueous solubility); format: physicochemical; conditions: absorption spectra in water vs DMSO and 1 M HCl
Description: UV/vis absorbance spectroscopy in DMSO, water and 1 M HCl. For each of the porphyrins 5, 6, and 7, 5 mg, was dissolved in 30 µL of 1 M NaOH H this was diluted to 5 mL with distilled to give stock solutions of concentrations 0.926 mM, 0.88 mM and 0.77 mM, respectively. In a quartz 96 well plate, 20 µL was added to a well and diluted to a volume of 320 µL with either DMSO, water or 1 M HCl.

[6] = system: Met-5a cells; test: Annexin V-FITC/PI cell death analysis by flow cytometry, Met-5a; format: cell-based, human; conditions: for EC50: Homo sapiens, read-out: EC50 (50% reduction in viable cell populations), PDT activity
Description: (§6) Cells were harvested in accordance with methods previously described and seeded into 24-well plates (Nunc, London, UK) at a density of 2 × 10^5 cells per well in 1000 μL of complete RPMI; the culture plates were seeded approximately 24 h before PDT. Cell treatment and irradiation was performed in accordance with methods previously described.
(§7) Annexin V-FITC/PI staining and cell death analysis was performed at both 24- and 48 h time points following PDT (representative flow cytometry dot-plots from Annexin V-FITC/PI-stained cells in Supplementary Materials-Figure S2). Non-adherent cells were harvested through the removal of culture medium and adherent monolayers were trypsinized and returned to the removed media. Harvested cells were removed from media via centrifugation (5 min, 400× g) (VWR Mega Star, Leicestershire, UK) and resuspended in Annexin V Binding Buffer. Following a second centrifugation, Annexin V Binding Buffer was discarded, and cell pellets were resuspended in the residual volume. Cells were stained with Annexin V-FITC (5 μL) and PI (10 μL) and incubated at room temperature for 15 min protected from light. 200 µL of Annexin V Binding Buffer was added prior to immediate analysis using a BD FACSCalibur (BD Biosciences, Wokingham, UK) and data from 10,000 events was collected. Flow cytometry results were analyzed using FlowJo™ v10.8 Software (BD Life Sciences). Quadrants consisted of Viable (Annexin V-FITC^−/PI^−), early stage apoptotic (Annexin V-FITC^+/PI^−) and late-stage apoptotic/necrotic (Annexin V-FITC^+/PI^+) populations.

[7] = Annexin V-FITC/PI cell death analysis by flow cytometry, MSTO-211H; format: cell-based, human; conditions: human, MSTO-211H cells, dark, 48 h, read-out: viable cells
Description: as §6, §7

[8] = system: MSTO-211H cells; test: as above; format: cell-based, human; conditions: light; for EC50: read-out: EC50 (50% reduction in viable cell populations), PDT activity
Description: as §6, §7

[9] = WST-8 cell viability assay after PDT, Met-5a; format: cell-based; conditions: human, Met-5a cells, light, read-out: cell viability relative to untreated control
Description: as §1, §4
Cell viability was assessed by the colorimetric WST-8 assay. Following 24 h of incubation (37 °C, 5% CO2:95% air), 10 μL of WST-8 was added to each cell-containing well of the 96-well plates. The plates were incubated for 3 h (37 °C, 5% CO2:95% air) and then analyzed at 450 nm using a Clariostar Plate Reader (BMG Labtech, Ortenberg, Germany). Corrected absorbance was calculated in each case by subtraction of the media only controls. Finally, percentage cell viability was expressed relative to untreated control values.

[10] = system: NCI-H28 cells; test: Annexin V-FITC/PI cell death analysis by flow cytometry, NCI-H28; format: cell-based, human; conditions: light; for EC50: read-out: EC50 (50% reduction in viable cell populations), PDT activity
Description: as §6, §7

[11] = as above; format: cell-based, human; conditions: human, NCI-H28 cells, read-out: viable cells
Description: as §6, §7

[12] = system: MSTO-211H cells; test: Cellular localization by high content fluorescence microscopy; format: cell-based, human; conditions: 24 h incubation
Description: Cells were harvested in accordance with methods previously described and seeded into 24-well plates (Nunc, London, UK) at a density of 25,000 treated with porphyrin working solutions made up from the porphyrin PS stock solutions and incubated for 24 h. The cells were visualized using a Cytation 5 (Agilent Technologies, Cheadle, UK) high content microscopy platform at 20× magnification.

[13] = Homo sapiens, 24 h, 24 h time point
[14] = Homo sapiens, 48 h, 48 h time point
[15] = Homo sapiens, NCI-H28, 24 h, NCI-H28, 24 h time point
[16] = Homo sapiens, NCI-H28, 48 h, NCI-H28, 48 h time point
[17] = 20 μg/mL, time point not stated

O=C(O)CCCCOc1cccc(-c2c3nc(c(-c4cccc(OCCCCC(=O)O)c4)c4ccc([nH]4)c(-c4cccc(OCCCCC(=O)O)c4)c4nc(c(-c5cccc(OCCCCC(=O)O)c5)c5ccc2[nH]5)C=C4)C=C3)c1 [C5SHU]
viability at 5 µg/mL [1]: 16% | viability at 48 h, 5 μg/mL [2]: 116% | viability at 48 h, 5 μg/mL [3]: 100% | viability at 48 h, 15 μg/mL ([3]; 15 μg/mL, read-out: dark toxicity (cell viability)): 30% | viability at 48 h, 20 μg/mL ([3]; 20 μg/mL, read-out: dark toxicity (cell viability)): 26% | viability at 5 µg/mL [4]: 22% | stacking in aqueous solutions [5]: least evidence of stacking | cell death ([6]; 24 h, all dose concentrations): no significant cell death | dark toxicity ([6]; 24 h, all dose concentrations): negligible dark toxicity | dark toxicity ([6]; 48 h): Negligible dark toxicity | predominant mode of cell death ([6]; 48 h, light): necrosis | EC50 ([6]; 24 h time point, light): > 20 µg/mL | EC50 ([6]; 48 h time point, light): 5.1 ± 1 µg/mL (≈ 4.73 µM) | viability at 48 h, 15 μg/mL ([7]; 15 μg/mL): 63.6% | viability at 48 h, 20 μg/mL ([7]; 20 μg/mL): 46.1% | apoptotic cell population ([8]; 10 μg/mL, 24 h): 49% | necrotic cell population ([8]; 10 μg/mL, 24 h): 34% | EC50 (50% reduction in viable cell populations), PDT activity ([8]; 24 h time point): 7.8 ± 3 µg/mL (≈ 7.23 µM) | EC50 [8, 13]: 7.7 µg/mL (≈ 7.13 µM) | EC50 [8, 14]: 2.8 ± 1.5 µg/mL (≈ 2.59 µM) | viability at 24 h, 5 μg/mL [9]: ~28% | viability at 48 h, 5 μg/mL [9]: ~11% | EC50 [10, 15]: 7.8 µg/mL (≈ 7.23 µM) | EC50 [10, 16]: 6 ± 1 µg/mL (≈ 5.56 µM) | apoptotic cell population ([10]; NCI-H28, 10 μg/mL, 24 h): 16% | necrotic cell population ([10]; NCI-H28, 10 μg/mL, 24 h): 53% | EC50 (50% reduction in viable cell populations), PDT activity ([10]; NCI-H28, 24 h time point): 7.7 ± 1 µg/mL (≈ 7.13 µM) | viability ([11]; NCI-H28, dark, unchanged with porphyrin dose): ~95%

O=C(O)CCCCCOc1cccc(-c2c3nc(c(-c4cccc(OCCCCCC(=O)O)c4)c4ccc([nH]4)c(-c4cccc(OCCCCCC(=O)O)c4)c4nc(c(-c5cccc(OCCCCCC(=O)O)c5)c5ccc2[nH]5)C=C4)C=C3)c1 [C6SHU]
viability at 48 h, 5 μg/mL [3]: 119% | viability at 5 µg/mL [4]: 38% | EC50 ([6]; 24 h time point, light): > 20 µg/mL | EC50 ([6]; 48 h time point, light): > 20 µg/mL | apoptotic cell population [8, 17]: 23% | necrotic cell population [8, 17]: 50% | viability at 20 µg/mL ([8]; Homo sapiens, 20 μg/mL, time point not stated, read-out: viable cell population): 20% | EC50 [8, 13]: 14 µg/mL (≈ 12.3 µM) | EC50 [8, 14]: 14 ± 4 µg/mL (≈ 12.3 µM) | EC50 [10, 15]: > 20 µg/mL | EC50 [10, 16]: > 20 µg/mL | IC50 ([10]; Homo sapiens, NCI-H28, NCI-28 as printed, time point not stated, read-out: IC50, PDT effect): > 20 µg/mL | viability at 20 µg/mL ([10]; Homo sapiens, NCI-H28, 20 μg/mL, time point not stated, read-out: viable cells): 59%

O=C(O)CCCCCCOc1cccc(-c2c3nc(c(-c4cccc(OCCCCCCC(=O)O)c4)c4ccc([nH]4)c(-c4cccc(OCCCCCCC(=O)O)c4)c4nc(c(-c5cccc(OCCCCCCC(=O)O)c5)c5ccc2[nH]5)C=C4)C=C3)c1 [C7SHU]
EC50 ([6]; 24 h time point, light): > 20 µg/mL | EC50 ([6]; 48 h time point, light): > 20 µg/mL | cellular localization [12]: localize in the cytosolic region | EC50 [8, 13]: 9.6 ± 3 µg/mL (≈ 8.06 µM) | EC50 [8, 14]: 7.7 ± 2 µg/mL (≈ 6.46 µM) | viability at 24 h, 5 μg/mL [9]: 66% | viability at 48 h, 5 μg/mL [9]: 30% | EC50 [10, 15]: > 20 µg/mL | EC50 [10, 16]: > 20 µg/mL | EC50 (50% reduction in viable cell populations), PDT activity ([10]; NCI-H28, 24 h time point): >20 ^a μg/mL | viability at 48 h, 10 μg/mL ([11]; NCI-H28, 10 μg/mL, 48 h): 75%
